Test results published in patent US20220372585A1, “Sensors for Aromatic Compounds and Methods of Making and Using Same” (Washington University, priority 2021, published 2022).

Key:
WT TrpR = target: T1, WT TrpR (Escherichia coli, UniProt P0A881); experiment: WT TrpR system, repression of GFP expression; type: cell-based, E. coli
T1 construct: trpR (WT); expressed in transfected cells; host or cells: E. coli Nissle 1917 (EcN), genomic trpR knocked out; plasmid pMBA035 (P17-trpR)
Text: Among the various aspects of the present disclosure is the provision of systems and methods for detecting aromatic compounds. An aspect of the present disclosure provides for a method of protein engineering (e.g., a regulator protein) comprising: mutagenizing specific amino acids in and around a ligand-binding site of a protein, wherein the mutagenizing enables changes in ligand-protein binding specificity while maintaining protein-DNA interaction and thus downstream gene expression control; and/or linking ligand-protein binding to output response. An aspect of the present disclosure provides for an engineered molecular sensor. […] In some embodiments, the engineered regulator protein or the ligand-protein binding site or a sequence encoding the engineered regulator protein or the ligand-protein binding site of the engineered regulator protein is at least about 80% identical to a WT regulator protein or a WT regulator ligand-protein binding site; or a sequence encoding the engineered regulator protein or ligand binding site thereof is at least about 80% identical to a sequence encoding the WT regulator protein or the WT regulator ligand-protein binding site; or functional fragment thereof, the engineered regulator protein having ligand binding activity. In some embodiments, the engineered molecular sensor is optionally genomically integrated into a microorganism, optionally selected from a probiotic or is a purified cell-free sensor. In some embodiments, the engineered regulator protein or enzyme is an engineered TrpR, TyrR, TynA, or FeaR protein. […] In some embodiments, the engineered regulator protein is an engineered TrpR and is a tryptophan (Trp)-, 5-hydroxytryptophan (5-HTP)-, or tryptamine (Trpta)-specific sensor. In some embodiments, the engineered regulator protein or enzyme is an engineered TrpR, TyrR, TynA, or FeaR, and/or wherein the engineered TrpR, TyrR, TynA, or FeaR comprises at least one mutation to a ligand-protein binding site having specific amino acid binding activity. […]

[1] = test system: wild-type TynA with M83Q FeaR; type: cell-based, E. coli MG1655; conditions: M83Q FeaR; 24 h; FIG. 28A
Method: (§1) Flow cytometry was performed as previously described. […] Cytometry data was gated by forward and side scatter.

[2] = test system: wild-type TynA with L108T FeaR; type: cell-based, E. coli MG1655; conditions: L108T FeaR; 24 h; FIG. 28B
Method: as §1

[3] = test system: wild-type TynA with W110C FeaR; type: cell-based, E. coli MG1655; conditions: W110C FeaR; 24 h; FIG. 28D
Method: as §1

[4] = test system: wild-type TynA with W110S FeaR; type: cell-based, E. coli MG1655; conditions: W110S FeaR; 24 h; FIG. 28C
Method: as §1

[5] = test system: sensor systems containing FeaR-KA; experiment: GFP fluorescence from PtynA in part-swapped sensor systems containing FeaR-KA; type: cell-based, Klebsiella aerogenes; conditions: 0.5 mM, 24 h, FIG. 31
Text: FIG. 31. […] PtynA from MG or KP/KA was regulated by TynA from MG or KP and FeaR from MG or KA. […] Values and error bars are the average and standard deviation of biological triplicate, respectively.
Tryptamine specific biosensors were first designed by genetic parts swapping. Three types of tynA and feaR genes from E. coli K-12 MG1655 (MG), Klebsiella aerogenes (KA), and Klebsiella pneumoniae (KP), and two types of PtynA sequences were chosen and tested in 18 different combinations (see e.g., FIG. 30). PtynA-KP/KA was constructed by replacing the FeaR binding sites of PtynA-MG with those from Klebsiella species.
Moreover, a Tryptamine specific variant I109N was discovered using a sensor system with PtynA-MG, TynA-KP and FeaR-KA as the wild type (VVT) for further directed evolution (see e.g., FIG. 32). […] Transfer curves for the tryptamine-specific FeaR-KA I109N sensor after 5 or 24 hours of induction further illustrate the specificity of the sensor for tryptamine (see e.g., FIG. 33A-FIG. 33B).

[6] = Sauerkraut, safe limit; cited from earlier work

Row | Compound | fold repression of GFP expression (WT TrpR) | response [1] | response [2] | response [3] | response [4] | fluorescence intensity [5] | Concentration [6]
1 | NCCc1c[nH]c2ccccc12 [Tryptamine, tryptamine] | 7 fold | lack of response | lack of response | lack of response | lack of response | significant enhancement of fluorescence intensity | 
2 | NCCc1ccccc1 [Phenylethylamine, phenylethylamine] |  |  |  |  |  |  | 30 µM
